From patent US20200039930A1, “PROLINE AMIDE COMPOUNDS AND THEIR AZETIDINE ANALOGUES CARRYING A SPECIFICALLY SUBSTITUTED BENZYL RADICAL” (AbbVie Deutschland GmbH & Co. KG, priority 2017, published 2020)
pEC50: −log10 of the molar value.

What was measured:
5-HT2C receptor = target: T1, 5-HT2C receptor (Homo sapiens, UniProt P28335); assay: Human 5-HT2C functional assay (beta-arrestin2 recruitment, U2OS_HTR2C_β-Arrestin cells); type: cell-based; conditions: compounds used as acid addition salts; for pEC50: U2OS_HTR2C_β-Arrestin cells, 1.5 h incubation, read-out: EC50 5-HT2C (potency in functional assay); for Emax: relative efficacy vs response to 10 µM 5-HT or maximal effect of 5-HT (100%)
T1 construct: host or cells: U2OS
Procedure: The functional activity of compounds of formula I was assayed by incubation with U2OS_HTR2C_β-Arrestin cells (DiscoverX, 93-0289C3) to induce beta-arrestin2 recruitment to the 5-HT2C receptor. The agonist-induced recruitment and proximity of the receptor and beta-arrestin2 leads to complementation and formation of active β-galactosidase. The enzyme complementation results in enzyme activity, which is measured following the termination of the agonist incubation using DiscoveRx's detection reagent, which contains a chemiluminescent substrate which produces a high intensity signal. Cells were plated and a medium-change to a 1% serum containing medium was performed 24 h later. The next day, test compounds were added and incubated for 1.5 h before addition of detection reagent.
The response produced was measured and compared with the response produced by 10 [mu]M 5-HT or the maximal effect induced by 5-HT (defined as 100%) to which it was expressed as a percentage response (relative efficacy). Dose response curves were con-structed using Graphpad Prism (Graph Software Inc.) or using in house adapted software using a 4 parameter dose response model with variable slope (fit=(Bottom+(Top−Bottom)/(1+10^((LogEC50−x)*Hill Slope))res=(y−fit)). Results are compiled in the table below.

[1] = Metabolic stability: unbound intrinsic clearance in liver microsomes; type: in vitro ADME; conditions: rat; liver microsomes 0.25 mg protein/mL, 0.5 μM compound, pH 7.4, 37° C.; Cl int unbound=Cl int/fu mic; compounds used as acid addition salts; read-out: Cl int, mic unb. (r) (unbound intrinsic clearance)
Procedure: Samples of the tested compounds (0.5 μM) were preincubated together with rat liver microsomes (0.25 mg of microsomal protein/mL) in 0.05 M potassium phosphate buffer of pH 7.4 in microtiter plates at 37° C. for 5 minutes. The reaction was started by adding NADPH (1.0 mM). After 0, 5, 10, 15, 20 and 30 minutes, an aliquot was removed, the reaction was cooled and stopped by adding twice the amount of quench solution consisting of acetonitrile/methanol 1:1, and containing […] carbutamide as internal standard. The samples were frozen until analyzed. The remaining concentration of undegraded test substance was determined by liquid chromatography-tandem mass spectrometry (LC-MS/MS). The half-life (t1/2) was determined from the gradient of the ratio of the signal of (test substance/internal standard)/unit time plot, allowing the calculation of the half-life of the test substance, assuming first order kinetics, from the decrease in the concentration of the compound with time. The microsomal clearance (mClint) was calculated as follows: mClint=((ln(2)/t 1/2)/Microsomal Protein Concentration (mg/ml))*1000, leading to the unit of uL/min/mg. The scaled clearance (mClin_scaled) was calculated as mCLint_scaled=m CLint*(Microsomal Yield (mg/kg BW))/1000000*60, leading to the units L/h/kg. The Microsomal Yield is defined by the specifics of the used microsomes. Calculations were modified from refer-ences: Di, The Society for Biomolecular Screening, 2003, 453-462; Obach, D M D, 1999 vol 27. N 11, 1350-1359.
A suspension of 0.25 mg/ml microsomal protein spiked with 0.5 μM of test compound was pipetted on one side of a HTDialysis device (HTDialysis LLC,37 Ledgewood Drive, Gales Fery Conn. 06335) separated by a membrane with a MWcut off 12-14 K. 50 mM K-Phosphate buffer (pH 7.4) was added on the other side of the well. After incubation at 37° C. for 4 h while shaking at 150 rpm, aliquots of both sides were taken, quenched with MeOH/ACN 1:1 and 0.2 μM of internal standard and frozen until analy-sis by LCMSMS.
Cl int unbound=Cl int/fu mic
The compounds were used in form of their respective acid addition salts.

T1 sequence (P28335 33-458): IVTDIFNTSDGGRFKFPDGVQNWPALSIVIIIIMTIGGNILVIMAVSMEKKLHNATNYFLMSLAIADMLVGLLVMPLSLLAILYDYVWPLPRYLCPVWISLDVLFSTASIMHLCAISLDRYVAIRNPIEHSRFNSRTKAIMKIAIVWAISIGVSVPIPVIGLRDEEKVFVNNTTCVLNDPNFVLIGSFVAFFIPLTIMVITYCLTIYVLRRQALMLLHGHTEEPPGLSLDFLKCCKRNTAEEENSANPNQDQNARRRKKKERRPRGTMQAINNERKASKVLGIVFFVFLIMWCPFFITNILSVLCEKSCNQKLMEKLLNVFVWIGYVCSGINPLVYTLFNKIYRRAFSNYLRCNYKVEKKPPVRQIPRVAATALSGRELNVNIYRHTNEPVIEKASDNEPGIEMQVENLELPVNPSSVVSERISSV
T1 sequence (P32121 whole entry partner): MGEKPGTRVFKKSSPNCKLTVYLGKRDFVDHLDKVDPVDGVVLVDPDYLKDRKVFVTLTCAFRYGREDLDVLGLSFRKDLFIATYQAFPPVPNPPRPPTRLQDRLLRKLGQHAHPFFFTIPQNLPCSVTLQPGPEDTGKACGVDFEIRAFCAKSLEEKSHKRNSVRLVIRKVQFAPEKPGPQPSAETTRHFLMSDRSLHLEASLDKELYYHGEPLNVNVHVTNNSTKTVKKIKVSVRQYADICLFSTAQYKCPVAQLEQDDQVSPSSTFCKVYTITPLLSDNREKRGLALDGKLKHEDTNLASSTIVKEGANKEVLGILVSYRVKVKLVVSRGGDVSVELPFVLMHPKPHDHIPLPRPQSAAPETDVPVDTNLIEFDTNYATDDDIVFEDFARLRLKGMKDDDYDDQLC

Row | SMILES | pEC50 (5-HT2C receptor) | Emax (5-HT2C receptor) [%] | CLint scaled at 0.5 μM [1] [mL/min/kg]
1 | COc1cc(OCc2cccc(F)c2F)c(F)cc1CNC(=O)[C@@H]1CCCN1 [Example 4, (2S)—N-[[4-[(2,3-Difluorophenyl)methoxy]-5-fluoro-2-methoxy-phenyl]methyl]-pyrrolidine-2-carboxamide] | 7.82 to 8.30 | > 70 | 1330 to 4170
2 | COc1cc(O[C@H]2CC[C@@H](C(F)(F)F)CC2)c(F)cc1CNC(=O)[C@@H]1CCCN1 [Example 34, (S)—N-(5-Fluoro-4-((cis-4-trifluoromethyl-cyclohexyl)oxy)-2-methoxybenzyl)-pyrrolidine-2-carboxamide] | 7.82 to 8.30 | > 70 | 1330 to 4170
3 | COc1cc(OC2CCCC(C(F)(F)F)C2)c(F)cc1CNC(=O)[C@@H]1CCCN1 (stereo partly drawn) [Example 35, (2S)—N-[[5-Fluoro-2-methoxy-4-[3-(trifluoromethyl)cyclohexoxy]phenyl]methyl]-pyrrolidine-2-carboxamide] | > 8.30 | > 70 | 500 to 1330
4 | COc1cc(OCc2cncc(F)c2)c(F)cc1CNC(=O)[C@@H]1CCCN1 [Example 9, (2S)—N-[[5-Fluoro-4-[(5-fluoro-3-pyridyl)methoxy]-2-methoxy-phenyl]methyl]-pyrrolidine-2-carboxamide] | 7.52 to 7.82 | > 70 | 500 to 1330
5 | COc1cc(O[C@H]2CC[C@H](F)CC2)c(F)cc1CNC(=O)[C@@H]1CCCN1 [Example 17, (S)—N-(5-Fluoro-4-((trans-4-fluorocyclohexyl)oxy)-2-methoxybenzyl)pyrrolidine-2-carboxamide] | 7.82 to 8.30 | > 70 | < 500
6 | COc1cc(OCC2CC(F)(F)C2)c(F)cc1CNC(=O)[C@@H]1CCCN1 [Example 29, (2S)—N-[[4-[(3,3-Difluorocyclobutyl)methoxy]-5-fluoro-2-methoxy-phenyl]methyl]-pyrrolidine-2-carboxamide] | 7.82 to 8.30 | > 70 | < 500
7 | COc1cc(OCC2(C(F)(F)F)CC2)c(F)cc1CNC(=O)[C@@H]1CCCN1 [Example 27, (2S)—N-[[5-Fluoro-2-methoxy-4-[[1-(trifluoromethyl)cyclopropyl]methoxy]phenyl]-methyl]pyrrolidine-2-carboxamide] | 7.82 to 8.30 | > 70 | 500 to 1330
8 | COc1cc(OCc2ccc(C(F)(F)F)nc2)c(F)cc1CNC(=O)[C@@H]1CCCN1 [Example 10, (2S)—N-[[5-fluoro-2-methoxy-4-[[6-(trifluoromethyl)-3-pyridyl]methoxy]phenyl]-methyl]pyrrolidine-2-carboxamide] | 7.52 to 7.82 | > 70 | 500 to 1330
9 | COc1cc(OCC2CCC(F)(F)C2)c(F)cc1CNC(=O)[C@@H]1CCCN1 (stereo partly drawn) [Example 31, (2S)—N-[[4-[(3,3-Difluorocyclopentyl)methoxy]-5-fluoro-2-methoxy-phenyl]methyl]-pyrrolidine-2-carboxamide] | 7.82 to 8.30 | > 70 | < 500
10 | COc1cc(OC2CCC(F)(F)CC2)c(F)cc1CNC(=O)[C@@H]1CCCN1C [Example 40, (2S)—N-[[4-(4,4-Difluorocyclohexoxy)-5-fluoro-2-methoxy-phenyl]methyl]-1-methyl-pyrrolidine-2-carboxamide] | 7.52 to 7.82 | > 70 | 500 to 1330
11 | COc1cc(OCC2CCC(F)(F)CC2)c(F)cc1CNC(=O)[C@@H]1CCCN1 [Example 32, (2S)—N-[[4-[(4,4-Difluorocyclohexyl)methoxy]-5-fluoro-2-methoxy-phenyl]methyl]-pyrrolidine-2-carboxamide] | 7.82 to 8.30 | > 70 | < 500
12 | COc1cc(OCCc2ccc(C(F)(F)F)cc2)c(F)cc1CNC(=O)[C@@H]1CCCN1 [Example 14, (2S)—N-[[5-Fluoro-2-methoxy-4-[2-[4-(trifluoromethyl)phenyl]ethoxy]phenyl]-methyl]pyrrolidine-2-carboxamide] | 7.82 to 8.30 | > 70 | 1330 to 4170
13 | COc1cc(OC2CC(F)(F)C2)c(F)cc1CNC(=O)[C@@H]1CCCN1C [Example 37, (2S)—N-[[4-(3,3-Difluorocyclobutoxy)-5-fluoro-2-methoxy-phenyl]methyl]-1-methyl-pyrrolidine-2-carboxamide] | 7.82 to 8.30 | > 70 | 500 to 1330
14 | COc1cc(OCc2cccc(F)c2)c(F)cc1CNC(=O)[C@@H]1CCCN1 [Example 1, (2S)—N-[[5-Fluoro-4-[(3-fluorophenyl)methoxy]-2-methoxy-phenyl]methyl]-pyrrolidine-2-carboxamide] | > 8.30 | > 70 | 1330 to 4170
15 | COc1cc(OCC2CCC(F)(F)C2)c(F)cc1CNC(=O)[C@@H]1CCCN1C (stereo partly drawn) [Example 38, (2S)—N-[[4-[(3,3-Difluorocyclopentyl)methoxy]-5-fluoro-2-methoxy-phenyl]methyl]-1-methyl-pyrrolidine-2-carboxamide] | 7.52 to 7.82 | > 70 | 1330 to 4170
16 | COc1cc(OCc2ccccc2F)c(F)cc1CNC(=O)[C@@H]1CCCN1 [Example 6, (2S)—N-[[5-Fluoro-4-[(2-fluorophenyl)methoxy]-2-methoxy-phenyl]methyl]-pyrrolidine-2-carboxamide] | 7.52 to 7.82 | > 70 | 1330 to 4170
17 | [2H]C1([2H])NC([2H])(C(=O)NCc2cc(F)c(OC3CCC(C(F)(F)F)CC3)cc2OC)C([2H])([2H])C1([2H])[2H] (stereo not drawn) [Example 42, 2,3,3,4,4,5,5-Heptadeuterio-N-[[5-fluoro-2-methoxy-4-[4-(trifluoromethyl)cyclohexoxy]phenyl]methyl]pyrrolidine-2-carboxamide] | > 8.30 | > 70 | < 500
18 | COc1cc(OC(C)C(F)(F)C(F)F)c(F)cc1CNC(=O)[C@@H]1CCCN1 (stereo partly drawn) [Example 22, (2S)—N-[[5-Fluoro-2-methoxy-4-(2,2,3,3-tetrafluoro-1-methyl-propoxy)phenyl]-methyl]pyrrolidine-2-carboxamide] | 7.82 to 8.30 | > 70 | < 500
19 | COc1cc(OCC(F)(F)C(F)F)c(F)cc1CNC(=O)[C@@H]1CCCN1 [Example 20, (2S)—N-[[5-Fluoro-2-methoxy-4-(2,2,3,3-tetrafluoropropoxy)phenyl]methyl]-pyrrolidine-2-carboxamide] | > 8.30 | > 70 | < 500
20 | COc1cc(OCCc2cccc(F)c2)c(F)cc1CNC(=O)[C@@H]1CCCN1 [Example 12, (2S)—N-[[5-Fluoro-4-[2-(3-fluorophenyl)ethoxy]-2-methoxy-phenyl]methyl]-pyrrolidine-2-carboxamide] | 7.82 to 8.30 | > 70 | 1330 to 4170
21 | COc1cc(OC2CCC(CF)CC2)c(F)cc1CNC(=O)[C@@H]1CCCN1 (stereo partly drawn) [Example 43, (2S)—N-[[5-Fluoro-4-[4-(fluoromethyl)cyclohexoxy]-2-methoxy-phenyl]methyl]-pyrrolidine-2-carboxamide] | 7.52 to 7.82 | > 70 | < 500
22 | COc1cc(OCC(C)CC(F)(F)F)c(F)cc1CNC(=O)[C@@H]1CCCN1 (stereo partly drawn) [Example 25, (2S)—N-[[5-Fluoro-2-methoxy-4-(4,4,4-trifluoro-2-methyl-butoxy)phenyl]methyl]-pyrrolidine-2-carboxamide] | > 8.30 | > 70 | 500 to 1330
